Experimental data from patent US10981858B2, “Dendrimer and formulations thereof” (Priostar Pty Ltd, priority 2015, dated 2021).

Experiment: 2,4-D/dendrimer hard water testing (clarity, sedimentation)
Assay type: physicochemical
Details: 30° C.; for Appearance at Addition / Appearance/Sedimentation After 24 Hrs.: 2,4-D Amine in 342 ppm hard water
Description: 342 ppm hard water was prepared as per CIPAC method MT18. The hard water was heated to 30° C. […]

Appearance at Addition (dendrimer 1.4% (w/w), 0.6% DEG): Clear | Appearance/Sedimentation After 24 Hrs. (dendrimer 1.4% (w/w), 0.6% DEG): Clear | Appearance at Addition (dendrimer 2% (w/w)): Clear | Appearance/Sedimentation After 24 Hrs. (dendrimer 2% (w/w)): Clear | Appearance at Addition (dendrimer 3.5% (w/w), 1.5% DEG): Clear | Appearance/Sedimentation After 24 Hrs. (dendrimer 3.5% (w/w), 1.5% DEG): Clear | Appearance at Addition (dendrimer 5% (w/w)): Clear | Appearance/Sedimentation After 24 Hrs. (dendrimer 5% (w/w)): Clear | Appearance at Addition (dendrimer 7% (w/w), 3% DEG): Clear | Appearance/Sedimentation After 24 Hrs. (dendrimer 7% (w/w), 3% DEG): Clear | Appearance at Addition (dendrimer 10% (w/w)): Clear | Appearance/Sedimentation After 24 Hrs. (dendrimer 10% (w/w)): Clear | Appearance of 2,4-D solutions in hard water (all concentrations tested (from 1.4 to 10%), 342 ppm hard water, 24 hours): clear
SMILES: OCCN(CCO)CC(O)COCC(COCC(O)CN(CCO)CCO)(COCC(O)CN(CCO)CCO)COCC(COCC(O)CN(CCO)CCO)(COCC(O)CN(CCO)CCO)COCC(O)CN(CCO)CCO (stereo not shown) [Compound 4, 9,9′-(Oxybis(methylene))bis(9-((3-(bis(2-hydroxyethyl)amino)-2-hydroxypropoxy)methyl)-3,15-bis(2-hydroxyethyl)-7,11-dioxa-3,15-diazaheptadecane-1,5,13,17-tetraol)]
